Drawing on US20080045514A1 (Cytovia, Inc., priority 2006, published 2008), this text covers EC50 for 21 molecules.

What all share (type): cell-based
Test [1] has as its system human breast cancer cell line T-47D. As to the kind of experiment: Caspase cascade activation (EC50), T-47D. As to conditions: Homo sapiens, T47D cells. As for the experimental part: (§1) Human breast cancer cell lines T-47D, human hepatocellular carcinoma cell line SNU398, human colon carcinoma cell line HCT116, human cancer cell line H1299, human Burkitt's lymphoma cell line Namalwa, human lymphoma cell line Raji, and human B cell lymphoblastoid cell line Ramos were grown according to media component mixtures designated by American Type Culture Collection+10% FCS (Invitrogen Corporation), in a 5% CO2-95% humidity incubator at 37° C. T-47D and H1299 cells were maintained at a cell density between 50 and 80% confluency at a cell density of 0.1 to 0.6×10^6 cells/mL. Cells were harvested at 600×g and resuspended at 0.65×10^6 cells/mL into appropriate media+10% FCS. An aliquot of 22.5 μL of cells was added to a well of a 384-well microtiter plate containing 2.5 μL of a 10% DMSO in RPMI-1640 media solution containing 0.16 to 100 μM of 3-(2-chlorophenyl)-6-(3,4-methylenedioxyphenyl)-7H-[1,2,4]triazolo[3,4-b][1,3,4]thiadiazine or other test compound (0.016 to 10 μM final). An aliquot of 22.5 μL of cells was added to a well of a 384-well microtiter plate containing 2.5 μL of a 10% DMSO in RPMI-1640 media solution without test compound as the control sample. The samples were mixed by agitation and then incubated at 37° C. for 48 h in a 5% CO2-95% humidity incubator. After incubation, the samples were removed from the incubator and 25 μL of a solution containing 14 μM of N—(Ac-DEVD)-N′-ethoxycarbonyl-R110 (SEQ ID No.:1) fluorogenic substrate (Cytovia, Inc.; WO99/18856), 20% sucrose (Sigma), 20 mM DTT (Sigma), 200 mM NaCl (Sigma), 40 mM Na PIPES buffer pH 7.2 (Sigma), and 500 μg/mL lysolecithin (Calbiochem) was added. The samples were mixed by agitation and incubated at room temperature. Using a fluorescent plate reader (Model SPECTRAfluor Plus, Tecan), an initial reading (T=0) was made approximately 1-2 min after addition of the substrate solution, employing excitation at 485 nm and emission at 530 nm, to determine the background fluorescence of the control sample. After the 3 h incubation, the samples were read for fluorescence as above (T=3 h). Calculation: The Relative Fluorescence Unit values (RFU) were used to calculate the sample readings as follows: RFU(T=3H)−Control RFU(T=0)=Net RFU(T=3h) The activity of caspase cascade activation was determined by the ratio of the net RFU value for 3-(2-chlorophenyl)-6-(3,4-methylenedioxyphenyl)-7H-[1,2,4]triazolo[3,4-b][1,3,4]thiadiazine (Example P) or other test compound to that of control samples. The EC50 (nM) was determined by a sigmoidal dose-response calculation (Prism 3.0, GraphPad Software Inc.).

The test system of test [2] is human hepatocellular carcinoma cell line SNU398. The test can be described thus: Caspase cascade activation (EC50), SNU398. As to conditions: Homo sapiens, SNU-398, SNU398 cells. As for the experimental part: as §1
Test [3] deals with human colon carcinoma cell line HCT116. The test can be described thus: Caspase cascade activation (EC50), HCT116. The following applies: Homo sapiens, HCT-116, HCT116 cells. As for the experimental part:
as §1

Test [4] concerns human Burkitt's lymphoma cell line Namalwa. As to the kind of experiment: Caspase cascade activation (EC50), Namalwa. The following applies: Homo sapiens, Burkitts lymphoma cell, Namalwa cells. As for the experimental part: as §1
Setting [5] is: caspase cascade activation, read-out: caspase potency (EC50) T47D.
The mark [6] stands for this setting: caspase cascade activation, read-out: caspase potency (EC50) SNU398.
Setting [7] is: caspase cascade activation, read-out: caspase potency (EC50) HCT116.
Where [8] appears, read: caspase cascade activation, read-out: caspase potency (EC50) Namalwa.
Where [9] appears, read: read-out: Caspase potency (EC50) T47D.
The mark [10] stands for this setting: read-out: Caspase potency (EC50) SNU398.
Where [11] appears, read: read-out: Caspase potency (EC50) HCT116.
The mark [12] stands for this setting: read-out: Caspase potency (EC50) Namalwa.

The structures appear in SMILES notation. Read-outs that look alike come from different tables or passages of the source.

As usually defined, the EC50 is the concentration at which the effect is half-maximal. On to `COc1ccccc1-c1nnc2n1N=C(c1ccc(N)c(N)c1)CS2` [Example 60, 6-(3,4-Diaminophenyl)-3-(2-methoxyphenyl)-7H-[1,2,4]triazolo[3,4-b][1,3,4]thiadiazine], for which the EC50 in test [1] (setting [5]), in test [2] (setting [6]), in test [3] (setting [7]) and in test [4] (setting [8]) was > 10000 nM each time.
Take `Cc1ccccc1-c1nnc2n1N=C(c1ccc(C(C)(C)C)cc1)CS2` [Example 51, 6-(4-tert-Butylphenyl)-3-(2-methylphenyl)-7H-[1,2,4]triazolo[3,4-b][1,3,4]thiadiazine]: the EC50 in test [1] (setting [5]), in test [2] (setting [6]), in test [3] (setting [7]) and in test [4] (setting [8]) was > 10000 nM in each case.
Regarding `Cc1ccc(C2=Nn3c(nnc3-c3ccccc3S(C)(=O)=O)SC2)cc1` [Example 73, 3-(2-Methylsulfonylphenyl)-6-(4-methylphenyl)-7H-[1,2,4]triazolo[3,4-b][1,3,4]thiadiazine], the EC50 is > 10000 nM in test [1] (setting [5]), > 1000 nM in test [2] (setting [6]), > 10000 nM in test [3] (setting [7]) and > 10000 nM in test [4] (setting [8]).
`Cc1ccc(C2=Nn3c(nnc3-c3ccccc3N)SC2)cc1` [Example 74, 3-(2-Aminophenyl)-6-(4-methylphenyl)-7H-[1,2,4]triazolo[3,4-b][1,3,4]thiadiazine]: the EC50 in test [1] (setting [5]) is > 10000 nM; in test [2] (setting [6]), 529 nM; in test [3] (setting [7]) it was 557 nM; in test [4] (setting [8]) it was 507 nM.
In the same order, the values of `COc1ccccc1-c1nnc2n1N=C(c1ccn(C)c1)CS2` [Example 86, 3-(2-Methoxyphenyl)-6-(1-methyl-1H-pyrrol-3-yl)-7H-[1,2,4]triazolo[3,4-b][1,3,4]thiadiazine] are 525 nM, 380 nM, 1320 nM and 320 nM.
In the same order, the values of `Cc1ccc(C2=Nn3c(nnc3-c3snnc3C)SC2)cc1` [Example 93, 3-(4-Methyl-1,2,3-thiadiazol-5-yl)-6-(4-methylphenyl)-7H-[1,2,4]triazolo[3,4-b][1,3,4]thiadiazine] are > 10000 nM, > 10000 nM, > 10000 nM and > 10000 nM.
As to `Cc1ccccc1-c1nnc2n1N=C(c1ccc(C)c([N+](=O)[O-])c1)CS2` [Example 53, 6-(4-Methyl-3-nitrophenyl)-3-(2-methylphenyl)-7H-[1,2,4]triazolo[3,4-b][1,3,4]thiadiazine], the half-maximal effective concentration (EC50) in test [1] (setting [5]), in test [2] (setting [6]), in test [3] (setting [7]) and in test [4] (setting [8]) was > 10000 nM in each case.
Regarding `Cc1ccc(C2=Nn3c(nnc3-c3cc(N)cn3C)SC2)cc1` [Example 99, 3-(1-Methyl-4-amino-1H-pyrrol-2-yl)-6-(4-methylphenyl)-7H-[1,2,4]triazolo[3,4-b][1,3,4]thiadiazine], the EC50 turned out to be 5420 nM in test [1] (setting [9]), 1260 nM in test [2] (setting [10]), 1780 nM in test [3] (setting [11]) and 1180 nM in test [4] (setting [12]).
`Cc1ccc(C2=Nn3c(nnc3-c3ccccc3[S+](C)[O-])SC2)cc1` (stereo not drawn) [Example 72, 3-(2-Methylsulfinylphenyl)-6-(4-methylphenyl)-7H-[1,2,4]triazolo[3,4-b][1,3,4]thiadiazine]: the EC50 in test [1] (setting [5]), in test [2] (setting [6]), in test [3] (setting [7]) and in test [4] (setting [8]) was > 10000 nM each time.
Turning to `Cc1ccc(C2=Nn3c(nnc3-c3ccc[nH]3)SC2)cc1` [Example 92, 6-(4-Methylphenyl)-3-(1H-pyrrol-2-yl)-7H-[1,2,4]triazolo[3,4-b][1,3,4]thiadiazine], the EC50 in test [1] (setting [5]), in test [2] (setting [6]), in test [3] (setting [7]) and in test [4] (setting [8]) was > 10000 nM throughout.
Consider `Cc1cc(Cl)ccc1-c1nnc2n1N=C(c1ccc(C)c([N+](=O)[O-])c1)CS2` [Example 90, 3-(4-Chloro-2-methylphenyl)-6-(4-methyl-3-nitrophenyl)-7H-[1,2,4]triazolo[3,4-b][1,3,4]thiadiazine], for which the half-maximal effective concentration (EC50) was 915 nM in test [1] (setting [5]), 412 nM in test [2] (setting [6]), 492 nM in test [3] (setting [7]) and 303 nM in test [4] (setting [8]).
For `COc1ccc(-c2nn3c(-c4ccccc4OC)nnc3[nH]c2=O)cc1` [Example 36, 3-(2-Methoxyphenyl)-6-(4-methoxyphenyl)-[1,2,4]triazolo[4,3-b][1,2,4]triazin-7(8H)-one], the EC50 in test [1] (setting [5]), in test [3] (setting [7]) and in test [4] (setting [8]) was > 10000 nM throughout.
Consider `COc1ccccc1-c1nnc2n1N=C(c1cccc(C)c1)CS2` [Example 82, 3-(2-Methoxyphenyl)-6-(3-methylphenyl)-7H-[1,2,4]triazolo[3,4-b][1,3,4]thiadiazine], for which the EC50 in test [1] (setting [5]) stood at 605 nM; in test [2] (setting [6]), 500 nM; in test [3] (setting [7]) it was 370 nM; in test [4] (setting [8]), 497 nM.
Turning to `Cc1ccc(C2=Nn3c(nnc3-c3c(C)nc4ccccn34)SC2)cc1` [Example 98, 3-(2-Methyl-imidazo[1,2-a]pyridin-3-yl)-6-(4-methylphenyl)-7H-[1,2,4]triazolo[3,4-b][1,3,4]thiadiazine], the EC50 in test [1] (setting [9]) is 166 nM; in test [2] (setting [10]), 59 nM; in test [3] (setting [11]), 98 nM; in test [4] (setting [12]), 66 nM.
As to `COc1ccc(C2=Nn3c(nnc3-c3ccccc3Cl)SC2)cc1` [Example C2, 3-(2-Chlorophenyl)-6-(4-methoxyphenyl)-7H-[1,2,4]triazolo[3,4-b][1,3,4]thiadiazine], the EC50 in test [1] (setting [5]) was determined as 395 nM; in test [2] (setting [6]) it was 60 nM; in test [3] (setting [7]) it was 177 nM.
For `COc1ccccc1-c1nnc2n1N=C(c1cc(I)c(N)c(I)c1)CS2` [Example 79, 6-(4-Amino-3,5-diiodophenyl)-3-(2-methoxyphenyl)-7H-[1,2,4]triazolo[3,4-b][1,3,4]thiadiazine], the EC50 worked out at 907 nM in test [1] (setting [5]), 562 nM in test [2] (setting [6]), 1250 nM in test [3] (setting [7]) and 304 nM in test [4] (setting [8]).
Take `COC(=O)c1ccc(C2=Nn3c(nnc3-c3ccccc3OC)SC2)cc1` [Example 85, 6-(4-Methoxycarbonylphenyl)-3-(2-methoxyphenyl)-7H-[1,2,4]triazolo[3,4-b][1,3,4]thiadiazine]: the EC50 was 274 nM in test [1] (setting [5]), 253 nM in test [2] (setting [6]), 298 nM in test [3] (setting [7]) and 209 nM in test [4] (setting [8]).
With `COc1cccc(-c2nnc3n2N=C(c2ccc(O)c(O)c2)CS3)c1` [Example D2, 3-(3-Methoxyphenyl)-6-(3,4-dihydroxyphenyl)-7H-[1,2,4]triazolo[3,4-b][1,3,4]thiadiazine], the values for the EC50 in test [1] (setting [5]), in test [2] (setting [6]) and in test [3] (setting [7]) were 687 nM, 112 nM and 525 nM, respectively.
In the same order, the values of `COc1cccc(-c2nnc3n2N=C(c2ccc(Br)cc2)CS3)c1` [Example F2, 3-(3-Methoxyphenyl)-6-(4-bromophenyl)-7H-[1,2,4]triazolo[3,4-b][1,3,4]thiadiazine] are 5400 nM, 2700 nM and > 10000 nM.
In the same order, the values of `CCOc1ccc(C2=Nn3c(nnc3-c3cccc(OCC)c3)SC2)cc1` [Example G2, 3-(3-Ethoxyphenyl)-6-(4-ethoxyphenyl)-7H-[1,2,4]triazolo[3,4-b][1,3,4]thiadiazine] are 6370 nM, 2550 nM and > 10000 nM.
In the same order, the values of `CCOc1ccc(C2=Nn3c(nnc3-c3cccc(Cl)c3)SC2)cc1` [Example E2, 3-(3-Chlorophenyl)-6-(4-ethoxyphenyl)-7H-[1,2,4]triazolo[3,4-b][1,3,4]thiadiazine] are 1100 nM, 429 nM and 681 nM.
